Laboratory results published in patent publication US20230193181A1, “3D Tissue Printing” (Oxford University Innovation Limited, priority 2020, published 2023).
Entries after “also recorded” stand apart in the source; their conditions may differ.

Experiments:
[1] = test system: printed neural tissue arrays (astrocytes and RFP-NPCs in Matrigel); test: Neurotoxicity test using printed neural tissue arrays
Experimental: FIG. 20a, The experimental process of drug testing using printed neural tissue arrays. From left to right: 2D cultured astrocytes and RFP-NPCs were harvested and added to Matrigel for the preparation of bio-ink with a cell density ratio of 3:1 (astrocytes vs RFP-NPCs) and total cell density of 4×10^7 mL^−1. The prepared bio-ink were printed into droplet arrays with individual droplet size around 100 μm. On the next day, cancer chemotherapy drugs were added to the culture medium. The neurotoxicity of the drugs were assessed after a further 24 hrs. FIG. 20b, Fluorescent images of neural tissues treated with DMSO (control) and cancer chemotherapy drugs with different reported neurotoxicity risks: 5-Fluorouracil (minor), Carboplatin (moderate), Taxol (high). […] FIG. 20c, Comparison of the neurotoxicity of different chemotherapy drugs.
Neurotoxicity of cancer chemotherapy drugs occurs frequently in clinic and often limit the dose of chemotherapy. We tested three chemotherapy drugs that are reported in clinic with low, moderate and high risks of neurotoxicity, using printed droplet arrays containing neural tissues (astrocytes and NSCs in Matrigel).

[2] = reported in clinic; cited from earlier work
printed neural tissues = test: Fluo-4 calcium imaging of printed neural tissues after KCl stimulation; format: cell-based, human; conditions: KCl 60 mM, 65 days ppd
From the text: FIG. 3d-f show spontaneous calcium oscillations (FIG. 3d), single-cell traces (FIG. 3e) and correlation coefficient analysis (FIG. 3f) of printed neural tissues at 44 days ppd. The data reveal increased neural communication after a longer period of differentiation. […] Intensities are false-coloured according to the ‘fire’ Look Up Table of Fiji. […] Images are false-coloured as in FIG. 3g. Scale bars are all 100 μm.
Calcium imaging and correlation analysis. A Fluo-4 Direct™ calcium assay kit (F10471, Invitrogen) was used according to the manufacturer's instructions to measure calcium activities. Briefly, printed neural tissues were transferred to 48-well plates and incubated with NMM/Fluo-4 calcium imaging reagents (v:v, 1:1) for 1 h at 37° C. Both spontaneous and evoked calcium recordings were recorded at 37° C. by fluorescence confocal microscopy (Leica SP5) at 1 frame per 2 seconds for FIG. 3a, 1 frame per 15 seconds FIG. 3d and 1 frame per 1 second for FIG. 3g. Pre-processing and analysis of time-lapse calcium recordings were performed in MATLAB. […] Individual neuronal somata were manually selected as ROIs, and the pixel mask in the local area was refined using ICA-based de-mixing of fluorescent transients. ΔF/F0 at time t was calculated with a moving baseline as: […]

[3] = test system: Astrocytes in droplet arrays; test: Fluo-4 calcium live imaging of astrocytes in droplet arrays after KCl stimulation; format: cell-based, human; conditions: KCl 60 mM
Experimental: FIG. 19a, human primary cortical astrocyte printed in an array. Astrocytes were printed at a cell density of 4×10^7 mL^−1 in Matrigel. Left: Calcein AM (CAM) staining of printed astrocytes at 2 days post printing. The dashed box indicates the area of the higher magnification image on the right (top two images in the middle). Top right row: higher magnification images of astrocyte printed in Matrigel (CAM staining image and the corresponding brightfield image) and image of astrocytes (brightfield with CAM staining) printed in agarose as the matrix. Bottom right row: immunostaining images of printed astrocytes with astrocyte markers vimentin (yellow) and GFAP (magenta). FIG. 19b, Spontaneous calcium fluctuations of astrocytes in printed droplet arrays. Left: Individual time-point frames of Fluo-4 calcium live imaging. Right: single-cell traces of the cells indicated by the colour-coded circles in the images (left panel). […] Proportions of astrocytes with spontaneous calcium fluctuations were measured at four conditions: 2D monolayer cell culture, and printed astrocyte, astrocyte-NPC, and astrocyte-MDA (a metastatic breast cancer cell line) droplet arrays. n>20 for all four conditions. *: P<0.05, **: P<0.01, ***: P<0.001 and ****: P<0.0001. […]

iPSCs derived NPCs = test: Oil toxicity test using iPSCs derived NPCs; format: cell-based; conditions: oil on top of medium of 2D cultured NPCs, 5 days; live (CAM)/dead (PI) staining on day 5
Experimental: 2D cultured NPCs were added with oil on top of medium and cultured for 5 days. Life (CAM, in green) and Dead (PI, in read) staining were conducted on day 5.
Bioreactors have been used in macro-scale to support biological active environment. However, nanoliter-sized bioreactors would offer the potential to study biological events with much small number of cells, and the potential application in high throughput assays. We firstly optimised the oil surrounding the nano-bioreactors, which plays a large role in the viability of the encapsulated neural tissues. […] The optimised conditions allow the growth of individual low-nanoliter sized neural tissue inside each nano-bioreactor, without interaction with cells in other nano-bioreactors. With differentiation medium, neural process outgrowth and neural migration were observed and assessed in nano-bioreactors. This technique have the potential for a low-cost HTS, as minimal cells and reagents are required. It also offers the potential application to study biological events where a small organised cluster of cells were involved, such as early stage embryogenesis and tumorigenesis.

RFP-hNSCs = test: Toxicity test of DPhPC on hNSCs; format: cell-based, human; conditions: DPhPC at 100 μg/mL or 400 μg/mL in neural maintenance medium; three days of culture
Experimental: RFP-hNSCs were cultured in neural maintenance medium containing no lipid (control) or DPhPC at either 100 μg/mL or 400 μg/mL. Arrows indicate the formation of neural rosette-like structures under all conditions after three days of culture.

## CC(=O)O[C@H]1C(=O)[C@@]2(C)[C@H]([C@H](OC(=O)c3ccccc3)[C@]3(O)C[C@H](OC(=O)[C@H](O)[C@@H](NC(=O)c4ccccc4)c4ccccc4)C(C)=C1C3(C)C)[C@]1(OC(C)=O)CO[C@@H]1C[C@@H]2O [Taxol]
[1]; human, 24 h
  neurotoxicity against neural cells in printed neural tissue arrays: higher toxicity against neural cells compared to 5-Fluorouracil
[2]
  reported neurotoxicity risk: high

## N.N.O=C([O-])C1(C(=O)[O-])CCC1.[Pt+2] [Carboplatin]
[1]; drugs added to culture medium the day after printing, assessed after a further 24 hrs, astrocytes:RFP-NPCs 3:1, n>25, P<0.05
  neurotoxicity against neural cells in printed neural tissue arrays: higher toxicity against neural cells compared to 5-Fluorouracil
[2]
  reported neurotoxicity risk: moderate

## [Cl-].[K+] [KCl]
Printed neural tissues
  calcium response of printed neural tissues to KCl: induced a rapid calcium transient in a cell; also recorded: evoked rapid Ca^2+ transients
[3]
  calcium response of astrocytes in droplet arrays to KCl stimulation: responsive

## CCCCCCCC/C=C\CCCCCCCC(=O)OCC(COC(=O)CCCCCCC/C=C\CCCCCCCC)OC(=O)CCCCCCC/C=C\CCCCCCCC [glyceryl trioleate]
iPSCs derived NPCs
  oil toxicity to NPCs: not toxic

## CC(C)CCCC(C)CCCC(C)CCCC(C)CC(=O)OC[C@H](COP(=O)([O-])OCC[N+](C)(C)C)OC(=O)CC(C)CCCC(C)CCCC(C)CCCC(C)C (stereo partly drawn) [DPhPC, 1,2-diphytanoyl-sn-glycero-3-phosphocholine]
RFP-hNSCs
  toxicity of DPhPC on hNSCs (neural rosette-like structure formation vs no-lipid control): No obvious differences

## O=c1[nH]cc(F)c(=O)[nH]1 [5-Fluorouracil]
[2]
  reported neurotoxicity risk: minor
